Drawing on ChEMBL document CHEMBL1150531, “Acetylcholinesterase inhibition by fused dihydroquinazoline compounds” (Bioorg Med Chem Lett, 1996), this text covers IC50 for twelve compounds.

Some results are limits rather than exact numbers.

One may read the IC50 as the concentration that inhibits the measured activity by half.

Assay [1] concerns the target Acetylcholinesterase (Homo sapiens, UniProt P22303).
Description: Inhibitory activity against acetylcholinesterase in human RBC
Assay [2] concerns the target T1, Acetylcholinesterase (Rattus norvegicus, UniProt P37136).
T1 sequence (P37136 whole entry): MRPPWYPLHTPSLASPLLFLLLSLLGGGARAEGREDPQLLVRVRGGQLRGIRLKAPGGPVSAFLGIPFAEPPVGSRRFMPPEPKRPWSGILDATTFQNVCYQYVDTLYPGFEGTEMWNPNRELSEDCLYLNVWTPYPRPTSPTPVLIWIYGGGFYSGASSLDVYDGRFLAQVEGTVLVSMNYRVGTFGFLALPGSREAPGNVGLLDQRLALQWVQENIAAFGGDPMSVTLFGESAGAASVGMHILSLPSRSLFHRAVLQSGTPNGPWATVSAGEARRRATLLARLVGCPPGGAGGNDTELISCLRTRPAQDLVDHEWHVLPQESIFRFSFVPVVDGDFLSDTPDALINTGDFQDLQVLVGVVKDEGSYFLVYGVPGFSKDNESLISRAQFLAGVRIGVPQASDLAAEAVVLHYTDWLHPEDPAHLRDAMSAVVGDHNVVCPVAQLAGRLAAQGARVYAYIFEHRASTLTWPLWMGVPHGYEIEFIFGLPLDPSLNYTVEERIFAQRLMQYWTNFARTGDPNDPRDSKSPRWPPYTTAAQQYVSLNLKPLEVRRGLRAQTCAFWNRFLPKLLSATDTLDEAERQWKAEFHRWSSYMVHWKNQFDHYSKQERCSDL
Description: Inhibitory activity against acetylcholinesterase in rat brain

Chain of Acetylcholinesterase (Homo sapiens, UniProt P22303) (P22303 whole entry): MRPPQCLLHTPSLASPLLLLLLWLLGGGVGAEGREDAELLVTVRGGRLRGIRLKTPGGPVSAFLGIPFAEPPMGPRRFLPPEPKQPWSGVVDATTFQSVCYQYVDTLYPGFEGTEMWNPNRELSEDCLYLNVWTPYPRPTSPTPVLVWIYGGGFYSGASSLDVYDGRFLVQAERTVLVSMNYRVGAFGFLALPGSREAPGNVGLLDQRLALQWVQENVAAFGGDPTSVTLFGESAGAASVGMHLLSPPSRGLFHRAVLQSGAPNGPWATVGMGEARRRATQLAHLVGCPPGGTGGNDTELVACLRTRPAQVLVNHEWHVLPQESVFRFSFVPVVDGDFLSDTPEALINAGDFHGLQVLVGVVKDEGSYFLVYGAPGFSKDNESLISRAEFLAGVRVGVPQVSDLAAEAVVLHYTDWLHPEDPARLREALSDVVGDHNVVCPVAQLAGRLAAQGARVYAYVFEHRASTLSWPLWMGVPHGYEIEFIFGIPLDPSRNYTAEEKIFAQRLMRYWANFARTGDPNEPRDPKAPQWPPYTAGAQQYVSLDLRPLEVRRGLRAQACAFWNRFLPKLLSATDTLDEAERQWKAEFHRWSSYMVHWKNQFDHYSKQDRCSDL

With `c1ccc2c(c1)CN1CCCC1=N2`, the figures for the IC50 in assay [1] and in assay [2] were 3.72 µM and 18 µM, respectively. Regarding `c1ccc2c(c1)CN1CCCCCCCC1=N2`, the IC50 in assay [1] is 13.5 µM; in assay [2] it was > 100 µM. For the compound `c1ccc2c(c1)CN1CCCCC1=N2`, the results for the IC50 in assay [1] and in assay [2] were 3.66 µM and > 100 µM, respectively.

For the compound `Clc1cccc2c1CN1CCCCCC1=N2`, in assay [2], the midpoint of inhibition, the IC50, lay at 4.75 µM. On to `O=c1c2ccc(Cl)cc2nc2n1CCCCC2`, for which the IC50 in assay [1] and in assay [2] was > 100 µM each time. `CCCCCCCNC(=O)Oc1ccc2c(c1)[C@]1(C)CCN(C)[C@@H]1N2C` [EPTASTIGMINE]: the IC50 was found to be 0.125 µM in assay [1] and 0.6 µM in assay [2]. On to `S=c1c2ccc(Cl)cc2nc2n1CCCCC2`, for which the IC50 in assay [1] and in assay [2] was > 100 µM throughout.

Turning to `c1ccc2c(c1)CN1CCCCCC1=N2`, the half-maximal inhibitory concentration (IC50) was found to be 3.76 µM in assay [1] and 15 µM in assay [2].

In assay [2], `C/C=C1\[C@H]2C=C(C)C[C@]1(N)c1ccc(=O)[nH]c1C2` [HUPERZINE A] yielded an IC50 of 0.094 µM.

`Clc1ccc2c(c1)CN1CCCCCC1=N2`: half-maximal inhibition in assay [2] (IC50) was put at 9.3 µM. As to `N=c1c2ccc(Cl)cc2nc2n1CCCCC2`, in assay [2], the IC50 came out at 35.9 µM. `c1ccc2c(c1)CN1CCCCCCC1=N2`: the results for the 50% inhibitory concentration (IC50) in assay [1] and in assay [2] were 9.2 µM and 100 µM, respectively.
